From paper PMC6891762, “Novel Isoxazolidine and γ-Lactam Analogues of Homonucleosides” (Molecules, 2019)
Values after ≈ are worked out from the molar mass of the structure shown.

Key:
[1] = test system: NCI-H460 (lung carcinoma) cells; experiment: Cytostatic activity, NCI-H460; assay type: cell-based; details: Homo sapiens, NCI-H460; concentration causing 50% decrease in cell proliferation
Description: (§1) The 50% cytostatic inhibitory concentration (IC50) causing a 50% decrease in cell proliferation was determined for all isolated isoxazolidines 14 and γ-lactams 15 toward nine cancerous cell lines (Capan-1 (pancreatic adenocarcinoma), Hap1 (chronic myeloid leukemia), HCT-116 (colorectal carcinoma), NCI-H460 (lung carcinoma), DND-41 (acute lymphoblastic leukemia), HL-60 (acute myeloid leukemia), K-562 (chronic myeloid leukemia), MM.1S (multiple myeloma) and Z-138 (non-Hodgkin lymphoma)) and normal retina (non-cancerous) cells (hTERT RPE-1). Docetaxel, etoposide and stauroporine were used as the reference compounds.
(§2) All assays were performed in 96-well microtiter plates. To each well was added (5−7.5) × 10^4 tumor cells and a given amount of the test compound. The cells were allowed to proliferate at 37 °C in a humidified, CO2-controlled atmosphere. At the end of the incubation period, the cells were counted in a Coulter counter. The IC50 (50% inhibitory concentration) was defined as the concentration of the compound that inhibited cell proliferation by 50%.

[2] = test system: HCT-116 (colorectal carcinoma) cells; experiment: Cytostatic activity, HCT-116; assay type: cell-based; details: Homo sapiens, HCT-116; concentration causing 50% decrease in cell proliferation
Description: as §1, §2

[3] = test system: hTERT RPE-1 normal retina (non-cancerous) cells; experiment: Cytostatic activity, normal retina cells; assay type: cell-based; details: hTERT-RPE1; concentration causing 50% decrease in cell proliferation
Description: as §1, §2

[4] = test system: Hap1 (chronic myeloid leukemia) cells; experiment: Cytostatic activity, Hap1; assay type: cell-based; details: Homo sapiens, HAP1; concentration causing 50% decrease in cell proliferation
Description: as §1, §2

[5] = test system: Capan-1 (pancreatic adenocarcinoma) cells; experiment: Cytostatic activity, Capan-1; assay type: cell-based
Description: as §1, with “RPE-1).” for “RPE-1). Docetaxel, etoposide and stauroporine were used as the reference compounds.”
as §2, with “counter.” for “counter. The IC50 (50% inhibitory concentration) was defined as the concentration of the compound that inhibited cell proliferation by 50%.”

[6] = design: method as in PMID 12904074, PMID 20394405, PMID 15743182, PMID 17580846, PMID 17967914; details: ref [34],[35],[36],[37],[38]; read-out: 50% cytotoxic concentration (CC50); cited from earlier work
[7] = test system: reverse transcriptase activity of (AMV) and human immunodeficiency virus (HIV); details: ref [34],[35],[36],[37],[38]; cited from earlier work
[8] = test system: herpes simplex virus; details: ref [19],[20],[21]; cited from earlier work
[9] = test system: vaccinia virus; details: ref [19],[20],[21]; cited from earlier work
[10] = test system: influenza type virus AH1N1; design: method as in PMID 23225323; details: ref [22]; cited from earlier work
[11] = test system: human enzymes (UDG); design: method as in PMID 11084051; details: ref [23]; cited from earlier work
[12] = test system: viral uracil-DNA glycosylase (UDG); design: method as in PMID 11084051; details: ref [23]; cited from earlier work
[13] = Homo sapiens, CAPAN-1, concentration causing 50% decrease in cell proliferation

Compound | IC50 [1] | IC50 [2] | IC50 [3] | IC50 [4] | IC50 [5, 13] | also measured
Cc1cn(C[C@H]2C[C@H](O)C(=O)N2C)c(=O)[nH]c1=O (relative stereo) [trans-15b, trans-1-[(4-Hydroxy-1-methyl-5-oxopyrrolidin-2-yl)methyl]-5-methylpyrimidine-2,4(1H,3H)-dione] | 55.6 µM | 53.3 µM | > 100 µM | 86.5 µM | 49.2 µM | –
CN1C(=O)[C@@H](O)C[C@@H]1Cn1cc(Br)c(=O)[nH]c1=O (relative stereo) [trans-15d, trans-5-Bromo-1-[(4-hydroxy-1-methyl-5-oxopyrrolidin-2-yl)methyl]pyrimidine-2,4(1H,3H)-dione] | 42.1 µM | > 100 µM | > 100 µM | 58.5 µM | 24.8 µM | –
CN1C(=O)[C@@H](O)C[C@@H]1Cn1cc(Cl)c(=O)[nH]c1=O (relative stereo) [trans-15e, trans-5-Chloro-1-[(4-hydroxy-1-methyl-5-oxopyrrolidin-2-yl)methyl]pyrimidine-2,4(1H,3H)-dione] | 47.7 µM | > 100 µM | > 100 µM | 54.5 µM | 21.5 µM | IC50 ([5]; concentration causing 50% decrease in cell proliferation): 18.2 µM
CN1C(=O)[C@@H](O)C[C@@H]1Cn1cnc2c(=O)n(C)c(=O)n(C)c21 (relative stereo) [trans-15h, trans-9-[(4-Hydroxy-1-methyl-5-oxopyrrolidin-2-yl)methyl]-1,3-dimethyl-3,9-dihydro-1H-purine-2,6-dione] | 49.8 µM | 45.7 µM | > 100 µM | > 100 µM | 47.2 µM | –
CN1C(=O)[C@@H](O)C[C@@H]1Cn1cnc2c(N)ncnc21 (relative stereo) [trans-15i, trans-5-[(6-Amino-9H-purin-9-yl)methyl]-3-hydroxy-1-methylpyrrolidin-2-one] | 54.7 µM | 65.7 µM | > 100 µM | 47.8 µM | 53.7 µM | –
Cc1cn([C@H]2C[C@H](N=[N+]=[N-])[C@@H](CO)O2)c(=O)[nH]c1=O [AZT, azidothymidine] | – | – | – | – | – | CC50 [6]: 12.1 µM; level of inhibition of reverse transcriptase activity [7]: 10 nM
Nc1ncnc2c1ncn2C[C@H]1C[C@H](O)[C@@H](CO)O1 [Compound 1] | – | – | – | – | – | minimum inhibitory concentration (MIC) [8]: 5 to 20 µg/mL; activity against vaccinia virus [9]: active
Nc1nc2c(ncn2C[C@H]2C[C@H](O)[C@@H](CO)O2)c(=O)[nH]1 [Compound 2] | – | – | – | – | – | minimum inhibitory concentration (MIC) [8]: 5 to 20 µg/mL; activity against vaccinia virus [9]: active
O=c1[nH]cnc2c1ncn2C[C@H]1C[C@H](O)[C@@H](CO)O1 [Compound 3] | – | – | – | – | – | IC50 [10]: 25.2 µg/mL (≈ 94.6 µM)
O=c1ccn(C[C@H]2C[C@H](O)[C@@H](CO)O2)c(=O)[nH]1 [Compound 4] | – | – | – | – | – | effect on the human enzymes [11]: only small effect; inhibition of viral uracil-DNA glycosylase (UDG) [12]: selective inhibitor
CC(=O)O[C@@]12CO[C@@H]1C[C@H](O)[C@@]1(C)C(=O)[C@H](O)C3=C(C)[C@@H](OC(=O)[C@H](O)[C@@H](NC(=O)OC(C)(C)C)c4ccccc4)C[C@@](O)([C@@H](OC(=O)c4ccccc4)[C@H]21)C3(C)C [Docetaxel, reference compound] | 0.89 µM | 0.25 µM | 25 µM | 1.19 µM | 0.95 µM | –
COc1cc([C@@H]2c3cc4c(cc3[C@@H](O[C@@H]3O[C@@H]5CO[C@@H](C)O[C@H]5[C@H](O)[C@H]3O)[C@H]3COC(=O)[C@H]23)OCO4)cc(OC)c1O [Etoposide, reference compound] | 1.35 µM | 1.03 µM | 0.23 µM | 0.04 µM | 0.15 µM | –
CN1C(=O)C(O)C[C@H]1Cn1cc(Br)c(=O)[nH]c1=O (stereo partly drawn) [cis-15d:trans-15d (53:47)] | 49.4 µM | 90 µM | > 100 µM | 49.9 µM | 52.1 µM | –
CN1C(=O)[C@@H](O)C[C@H]1CN1CCC(=O)NC1=O [cis-15g, cis-1-[(4-Hydroxy-1-methyl-5-oxopyrrolidin-2-yl)metyl]dihydropyrimidine-2,4(1H,3H)-dione] | 42.7 µM | > 100 µM | > 100 µM | 56.3 µM | 41.3 µM | –
C[C@H](Cn1cnc2c(N)ncnc21)OCP(=O)(O)O [tenofovir] | – | – | – | – | – | level of inhibition of reverse transcriptase activity [7]: 1 nM
CN1C(=O)[C@H](O)C[C@H]1CN1CCC(=O)NC1=O [trans-15g, trans-1-[(4-Hydroxy-1-methyl-5-oxopyrrolidin-2-yl)metyl]dihydropyrimidine-2,4(1H,3H)-dione] | 69.3 µM | > 100 µM | > 100 µM | 49.4 µM | 46.7 µM | –
